From patent US7462640B2, “Indol-6yl sulfonamide derivatives, their preparation and their use as 5-HT-6 as modulators” (Laboratorios del Dr. Esteve S.A., priority 2003, dated 2008)

A melting point of 140 to 143 °C was found for CN(C)CCn1ccc2ccc(NS(=O)(=O)c3ccc4ccccc4c3)cc21 [Example 2, N-[1-(2-Dimethylaminoethyl)-1H-indole-6-yl]-naphthalene-2-sulfonamide] in this work. A melting point of 139 to 142 °C was found for CN(C)CCn1ccc2ccc(NS(=O)(=O)c3cccc4ccccc34)cc21 [Example 3, N-[1-(2-Dimethylaminoethyl)-1H-indole-6-yl]-naphthalene-1-sulfonamide] in this work. A melting point of 150 to 159 °C was found for CN(C)CCn1ccc2ccc(NS(=O)(=O)c3cc(Cl)cc(Cl)c3)cc21 [Example 8, N-[1-(2-dimethylaminoethyl)-1H-indole-6-yl]-3,5-dichlorobenzenesulfonamide] in this work.
